Assay results from ChEMBL document CHEMBL2150913, “Novel Benzoisoxazole as Partial Agonist of the 5-HT4 Receptor: Patent Highlight” (ACS Med Chem Lett, 2012).

Legend:
Brain = assay: AUC in rat brain at 5 mg/kg, sc; format: ADME, organism-based; set-up: dose 5 mg/kg, route subcutaneous; details: in vivo
Plasma = assay: AUC in rat plasma at 5 mg/kg, sc; format: ADME, organism-based; set-up: dose 5 mg/kg, route subcutaneous; details: in vivo
[1] = Cytotoxicity against human THLE cells assessed as cell health and cell depletion; format: cell-based

Compound: OC1(CN2CCC(COc3noc4cccc(O[C@@H]5CCOC5)c34)CC2)CCOCC1 [PF-04995274]
- AUC (Brain): 1790 ng·h/g
- AUC (Plasma): 1760 ng·h/g
- Activity [1]: 300 µM
